Measurements taken from patent US11992297B2, “Monitoring method of heart rate for toxicity test using high-speed digital holography” (KOREA RESEARCH INSTITUTE OF STANDARDS AND SCIENCE, priority 2020, dated 2024).
Read-outs that look alike come from different tables or passages of the source.

How the values were obtained:
water flea [1] = conditions: for change of heart rate (final RHR) relative to the original heart rate (OHR) / decrease of heart rate (final RHR) relative to the original heart rate (OHR): FIG. 7 (C); for decrease of heart rate (final RHR) relative to the original heart rate (OHR): normalized for initial RHR; for relaxation heart rate (RHR) 0 hr / relaxation heart rate (RHR) 24 hr: average ± SD; for RHR normalization relative to 0 hr: 24 hr relative to 0 hr; for heart rate decrease after 24 hours (normalized average RHR): FIG. 8 (B),(C)
Protocol: In the individual response evaluation apparatus, an extra-axial digital holography method was used to take a hologram of the water flea with a CCD camera.
The heart rate of the water flea was analyzed by the reconstructed time-resolved phase distributions, from the heart rate signal obtained by the method.
A Fourier spectrum method was used for evaluating periodic characteristics in heart rate analysis. In (C) of FIG. 5, a one-dimensional Fourier spectrum method was used for each pixel of 1000 frame sets to calculate a two-dimensional frequency distribution of the water flea.
2 hours after the observation, 19 mL of hydrogen peroxide having concentrations of 0.00 mM, 0.03 mM, and 0.06 mM, respectively was each mixed for each experiment to perform the experiment repeatedly so that the water flea is exposed to the hydrogen peroxide. At this time, in a negative control group of 0.00 mM treatment, 10 mL of an M4 medium was further mixed for unifying volume.
Upon observation, the heart rate analysis was performed by dividing the section into those before and after exposure to hydrogen peroxide.
In order to express the heart rate trend of (B) of FIG. 7, in (A) of FIG. 7, an original heart rate (OHR) was flattened every 30 minutes by a moving average method.

water flea [2] = conditions: 0.06 mM-treated test group versus 0.03 mM-treated group; FIG. 8 (d)
[3] = 0.03 mM hydrogen peroxide, Group (N=3)
[4] = 0.03 mM hydrogen peroxide, specimen #4
[5] = 0.03 mM hydrogen peroxide, specimen #5
[6] = 0.03 mM hydrogen peroxide, specimen #6
[7] = 0.06 mM hydrogen peroxide, Group (N=3)
[8] = 0.06 mM hydrogen peroxide, specimen #7
[9] = 0.06 mM hydrogen peroxide, specimen #8
[10] = 0.06 mM hydrogen peroxide, specimen #9

RHR normalization relative to 0 hr (water flea [1]; [3]): 92.84 ± 5.60%
RHR normalization relative to 0 hr (water flea [1]; [4]): 90.42 ± 4.74%
RHR normalization relative to 0 hr (water flea [1]; [5]): 96.72 ± 1.78%
RHR normalization relative to 0 hr (water flea [1]; [6]): 91.42 ± 6.94%
RHR normalization relative to 0 hr (water flea [1]; [7]): 73.96 ± 5.61%
RHR normalization relative to 0 hr (water flea [1]; [8]): 74.26 ± 4.33%
RHR normalization relative to 0 hr (water flea [1]; [9]): 79.13 ± 3.88%
RHR normalization relative to 0 hr (water flea [1]; [10]): 68.47 ± 1.93%
reactive oxygen species (ROS) level, times higher than the 0.03 mM-treated group (water flea [2]): 7.8 times
SMILES: OO [hydrogen peroxide]
change of heart rate (final RHR) relative to the original heart rate (OHR) (water flea [1]; 0.03 mM hydrogen peroxide): −13 BPM
decrease of heart rate (final RHR) relative to the original heart rate (OHR) (water flea [1]; 0.03 mM hydrogen peroxide): 3.3%
relaxation heart rate (RHR) 0 hr (water flea [1]; [3]): 366.81 ± 20.43 BPM
relaxation heart rate (RHR) 24 hr (water flea [1]; [3]): 340.33 ± 21.98 BPM
relaxation heart rate (RHR) 0 hr (water flea [1]; [4]): 363.22 ± 12.11 BPM
relaxation heart rate (RHR) 24 hr (water flea [1]; [4]): 328.43 ± 18.01 BPM
relaxation heart rate (RHR) 0 hr (water flea [1]; [5]): 350.78 ± 20.23 BPM
relaxation heart rate (RHR) 24 hr (water flea [1]; [5]): 339.28 ± 6.54 BPM
relaxation heart rate (RHR) 0 hr (water flea [1]; [6]): 486.43 ± 6.63 BPM
relaxation heart rate (RHR) 24 hr (water flea [1]; [6]): 353.28 ± 27.98 BPM
heart rate decrease after 24 hours (normalized average RHR) (water flea [1]; 0.03 mM-treated test group): 7.16%
change of heart rate (final RHR) relative to the original heart rate (OHR) (water flea [1]; 0.06 mM hydrogen peroxide): −109 BPM
decrease of heart rate (final RHR) relative to the original heart rate (OHR) (water flea [1]; 0.06 mM hydrogen peroxide): 22.7%
relaxation heart rate (RHR) 0 hr (water flea [1]; [7]): 383.81 ± 12.99 BPM
relaxation heart rate (RHR) 24 hr (water flea [1]; [7]): 279.05 ± 12.71 BPM
relaxation heart rate (RHR) 0 hr (water flea [1]; [8]): 370.07 ± 25.38 BPM
relaxation heart rate (RHR) 24 hr (water flea [1]; [8]): 274.82 ± 16.01 BPM
relaxation heart rate (RHR) 0 hr (water flea [1]; [9]): 378.43 ± 15.41 BPM
relaxation heart rate (RHR) 24 hr (water flea [1]; [9]): 299.47 ± 14.70 BPM
relaxation heart rate (RHR) 0 hr (water flea [1]; [10]): 383.90 ± 13.02 BPM
relaxation heart rate (RHR) 24 hr (water flea [1]; [10]): 262.87 ± 7.41 BPM
heart rate decrease after 24 hours (normalized average RHR) (water flea [1]; 0.06 mM-treated test group): 25.97%
